We go through one substance from patent US8211646B1, “Methods of treating ovarian cancer by modulating SnoN” (University of South Florida, priority 2008, dated 2012).

Holding throughout (assay type): cell-based
One assay relates to T80, HEY and SKOV3 cells. Nature of the assay: Annexin V-propidium iodide apoptosis assay. The conditions noted are these: As2O3 treatment. The protocol:
For assessment of apoptosis, the Annexin V-propidium iodide staining kit (Calbiochem, San Diego, Calif.) was used according to the manufacturer's protocol. Briefly, cells were treated with As2O3 for 24 hours at which time both the floating and adherent cells (removed by trypsinization) were collected. Cells were resuspended in PBS followed by the addition of annexin V-FITC and propidium iodide. The samples were then analyzed by flow cytometry at the MD Anderson Cancer Center FACS Core Facility. The FITC and the propidium iodide signals were detected at 518 nm with FL1 and at 620 nm with FL2, respectively.

Assay [1] deals with immortalized and cancer ovarian cell lines. Nature of the assay: Boyden chamber migration assay. The following applies: 5 μM As2O3 6 hours, then 18 hours in Boyden chamber. The protocol:
FIGS. 25(A) through (C) are graphs showing arsenic trioxide induces cell death and inhibits migratory potential. HEY cells were treated for 6 hours with 5 μM As2O3 and seeded at 25,000 cells into Boyden chamber inserts for 18 hours. Cells were stained with crystal violet and counted.
TAg/hTert immortalized normal ovarian epithelial cells (TIOSE: T29 and T80) and ovarian cancer cells (OVCAR8, OVCA429, SKOV3, and HEY) were transfected with siRNA were counted 24 h post-transfection and 5000 cells were plated in each well of a 96-well plate maintained in 10% FBS. At various days, cells were fixed and stained with crystal violet solution, dissolved in Sorenson's buffer, and absorbance measured at 570 nm. To assess migration, cells transfected with siRNA were counted 24 h post-transfection and seeded into Boyden chamber inserts in serum-free media. FBS in the lower chamber media (RPMI 1640) was used as a chemoattractant for 24 h. The cells that migrated onto the lower membrane were stained with crystal violet, photographed, and counted.

For the next assay, the system named is EVI1 and TGFβRII RNA. Nature of the assay: qPCR of EVI1 and TGFβRII RNA levels. The following applies: 5 μM As2O3, 18 hours. The procedure: RNA was isolated using the RNeasy Mini Kit (Qiagen, Valencia, Calif.) from normal, benign, stage I-IV ovarian patient samples and quantitative PCR was performed. A one-step RT-PCR Taqman master mix from Applied Biosystems (Foster City, Calif.) and primers for genes in the 3q26.2 amplicon were obtained using Genebank sequences as well as from Assays on Demand (Hs00180524_m1 (SnoN/SkiL)), with the following primers and probe sets.
EVI1 Exon III—(detects both EVI1 and MDS1/EVI1):
Primers/probe sequences for SnoN (Hs00180524_m1), TGFβRII (Hs00234253_m1), and LC3 (Hs00261291_m1) were obtained from Applied Biosystems (Assays by Design).
mRNA levels were determined using the One-Step-Plus Applied Biosystems Detection System or ABI PRISM 7700 Sequence Detection System using β-actin as a reference. […] 95° C. for 15 s followed by 60° C. for 1 min Using the correlative method, RNA-fold change in expression was calculated as Ct of gene—Ct of β-actin to generate ΔCt from which ΔCt of the normal sample was subtracted. […]
The clinical inhibitors As2O3, geldanamycin (17-AAG) (dissolved in dimethylsulfoxide [DMSO]), and MG132 (dissolved in DMSO) were obtained from Sigma-Aldrich (St. Louis, Mo.), Fisher Scientific (Pittsburgh, Pa.), and Alexis Biochemicals (Farmingdale, N.Y.), respectively. […] In addition, for selected studies, RNA was isolated, quantified, and used for qPCR analysis.
In general terms: In qPCR the cycle at which signal appears reflects the starting amount.

Take Arsenic trioxide [As2O3]: the apoptotic percentage is recorded as < 20% in the assay with T80, HEY and SKOV3 cells (SKOV3 and HEY); > 80% with T80, HEY and SKOV3 cells (T80 (low expressing EVI1 cell line)). Besides, the “reduction of migratory potential” value in assay [1] is reported as “more than fifty percent”. Further, in the assay with EVI1 and TGFβRII RNA, the “decrease in EVI1 and TGFβRII RNA levels” value is recorded as < 20%.
